# Laboratory results reported in US20240316000A1, “METHODS OF TREATMENT” (DIFFUSION PHARMACEUTICALS LLC, priority 2021, published 2024).
# Legend:
# healthy volunteers = assay: Transcutaneous oximetry (tcpO2) pharmacodynamic study, single IV bolus, subjects breathing 100% O2; format: in vivo, human; settings: for Number (%) of Subjects with a TcpO2 increase during Period 2: TSC-treated N = 24, all doses
# Protocol: This is a randomized, double-blind, placebo-controlled, pharmacokinetic, pharmacodynamics study of Trans Sodium Crocetinate (TSC) utilizing Transcutaneous Oximetry Measurement (tcpO2) in healthy volunteers breathing 100% O2. Study assessments include tcpO2 levels, SpO2, and PK.
# TcpO2 sensor electrodes are applied to the left or right lower extremity, per PI discretion. Sensor electrode temperature is preset to 45° C., to allow maximum vasodilation. Risk of sensor site superficial burn is minimal given the relatively brief testing period. Four (4) sensors are applied to the following locations: • Sensor 1: Mid-dorsum of the foot • Sensor 2: 10 cm distal to the lateral femoral epicondyle • Sensor 3: 5 cm proximal to the anterior aspect of the lateral malleolus • Sensor 4: 5 cm proximal from the center of the medial malleolus
# After the tcpO2 sensors have been applied and tested, subjects are placed on O2 via a simple facemask at 6 L/minute, and remain on O2 for 70 minutes prior to study drug administration. The first 10 minutes allow for equilibration of O2 levels, and the subsequent 60 minutes serve as the baseline period. TcpO2 values and SpO2 are recorded every 5 minutes during the above periods. Baseline vital signs are measured within 10 minutes prior to study drug dosing.
# At the end of the 70-minute equilibration/baseline period, subjects continue on O2 and receive a single IV bolus injection of TSC at a dose of 0.5, 1.0, 1.5, 2.0 or 2.5 mg/kg, or placebo. After study drug administration, subjects are evaluated for 60 minutes, with tcpO2 values and SpO2 recorded every 5 minutes. In addition to assessment of tcpO2 every 5 minutes, continuous tcpO2 measurements are provided by the TCOM machine in graphical format.
# The primary analysis is based on the change over time in the tcpO2 measurements following a single administration of TSC in subjects breathing 100% O2. The time-matched changes from Period 1 (60 minute run-in on 100% O2) to Period 2 (60 minute post-drug administration on 100% O2) serve as the dependent variable in the repeated measures analysis. The 60 minute run-in on 100% O2 is intended to account for the intra-subject variability over time and the time-match differences represent the least biased estimate of the effect of the study drug.
# The overall pooled median values across the four TcpO2 sensors are calculated using the median value from each sensor during the same interval. To compare the time-matched changes in TcpO2, a 2-factor (treatment and time) repeated measures (time) analysis of variance (ANOVA) model is used. Contrast statements within the model facilitate comparisons between individual dose arms and placebo over time. Intra-subject changes (Period 2 minus Period 1 in 5-minute intervals) serve as the dependent variable in the model. TcpO2 baseline measures during the 60-minute Period 1 are adjusted for intra-subject variability over time. Time-matched differences between values obtained during Period 1 and Period 2 represent the least biased estimate of the effect of the study drug versus placebo.
# Therefore, a supplementary pharmacodynamic analysis on the intra-subject slopes from each period and sensor is performed. For Period 1, on an intra-subject basis, the median value from each of the 12 intervals is used to construct the slope using orthogonal spacing with respect to time. For Period 2, the slope is constructed using the median value from each of the 13 intervals—of note, Period 2 observations include 1- and 2-minute values—in addition to the 5-minute measurements for comparison to the 12 corresponding intervals of Period 1. An additional set of analyses are conducted using the Period 2 intra-subject slopes as the dependent variable. The active dose groups are pooled and the least square means are compared to placebo. This procedure is repeated iteratively, each time removing the next lowest dose group to determine the separation of each cohort's least square means relative to placebo.
# [1] = tested on: patients with peripheral artery disease; settings: 0.25 mg/kg to 2.0 mg/kg tested, cited from earlier work
# hemorrhagic shock = settings: after hemorrhagic shock in rats; cited from earlier work
# [2] = tested on: permanent (24-hour) focal ischemia; settings: dosages tested 0.023 to 4.580 mg/kg; cited from earlier work
# [3] = Stability of TSC versus pH; format: physicochemical
# [4] = tested on: healthy volunteers exercising at altitude; assay: Safety assessment in the altitude study; format: in vivo, human; settings: all doses tested; no serious adverse events reported
# Source text: Adverse Events (AE), and Serious Adverse Events (SAE) will be reported per protocols. Laboratory values (complete blood count [CBC], basic metabolic panel [BMP] HIV, HBsAg, HCVAb), vital signs (blood pressure, heart rate, respiratory rate, temperature), and oxygen saturation (SpO2) will be monitored.
# [5] = Absorption after intramuscular injection of TSC with gamma cyclodextrin; format: in vivo; settings: injected intramuscularly with gamma cyclodextrin; rats
compound,measurement,setting,value
"CC(/C=C/C=C(\C)C(=O)[O-])=C\C=C\C=C(C)\C=C\C=C(/C)C(=O)O.[Na+] [TSC, trans sodium crocetinate]",Dose giving the greatest difference in TcpO2 from placebo,healthy volunteers; 1-hour treatment period (Period 2),2.5 mg/kg
same,Peripheral oxygenation levels over time,"healthy volunteers; Period 2, placebo shows time related decrease",stable or increasing peripheral oxygenation levels over time
same,Number (%) of Subjects with a TcpO2 increase during Period 2,"healthy volunteers; Sensor 1 (mid-dorsum of the foot), placebo 1/5 (20.0%)",16/24 (66.7%)
same,"Intra-subject TcpO2 slopes, Least Square Mean","healthy volunteers; Sensor 1, pooling TSC doses ≥1.0 mg/kg, placebo −0.1878, probability 0.0960",0.3537
same,"Intra-subject TcpO2 slopes, Least Square Mean","healthy volunteers; Sensor 1, pooling TSC doses ≥1.5 mg/kg, placebo −0.1878, probability 0.1702",0.3027
same,"Intra-subject TcpO2 slopes, Least Square Mean","healthy volunteers; Sensor 1, pooling TSC doses ≥2.0 mg/kg, placebo −0.1878, probability 0.1430",0.4359
same,"Intra-subject TcpO2 slopes, Least Square Mean","healthy volunteers; Sensor 1, pooling all TSC doses, placebo −0.1878, probability 0.0876",0.3185
same,Number (%) of Subjects with a TcpO2 increase during Period 2,"healthy volunteers; Sensor 2, placebo 0/5",4/24 (16.7%)
same,"Intra-subject TcpO2 slopes, Least Square Mean","healthy volunteers; Sensor 2, pooling TSC doses ≥1.0 mg/kg, placebo −0.3481, probability 0.1139",0.0656
same,"Intra-subject TcpO2 slopes, Least Square Mean","healthy volunteers; Sensor 2, pooling TSC doses ≥1.5 mg/kg, placebo −0.3481, probability 0.1306",0.0149
same,"Intra-subject TcpO2 slopes, Least Square Mean","healthy volunteers; Sensor 2, pooling TSC doses ≥2.0 mg/kg, placebo −0.3481, probability 0.0959",0.0753
same,"Intra-subject TcpO2 slopes, Least Square Mean","healthy volunteers; Sensor 2, pooling all TSC doses, placebo −0.3481, probability 0.0796",0.0849
same,Number (%) of Subjects with a TcpO2 increase during Period 2,"healthy volunteers; Sensor 3, placebo 0/5",3/24 (12.5%)
same,"Intra-subject TcpO2 slopes, Least Square Mean","healthy volunteers; Sensor 3, pooling TSC doses ≥1.0 mg/kg, placebo −0.6320, probability 0.0301",0.0132
same,"Intra-subject TcpO2 slopes, Least Square Mean","healthy volunteers; Sensor 3, pooling TSC doses ≥1.5 mg/kg, placebo −0.6320, probability 0.0572",0.0249
same,"Intra-subject TcpO2 slopes, Least Square Mean","healthy volunteers; Sensor 3, pooling TSC doses ≥2.0 mg/kg, placebo −0.6320, probability 0.0421",0.0846
same,"Intra-subject TcpO2 slopes, Least Square Mean","healthy volunteers; Sensor 3, pooling all TSC doses, placebo −0.6320, probability 0.0186",0.0151
same,Number (%) of Subjects with a TcpO2 increase during Period 2,"healthy volunteers; Sensor 4, placebo 0/5",6/24 (25.0%)
same,"Intra-subject TcpO2 slopes, Least Square Mean","healthy volunteers; Sensor 4, pooling TSC doses ≥1.0 mg/kg, placebo −0.6389, probability 0.0213",0.0260
same,"Intra-subject TcpO2 slopes, Least Square Mean","healthy volunteers; Sensor 4, pooling TSC doses ≥1.5 mg/kg, placebo −0.6389, probability 0.0436",−0.0909
same,"Intra-subject TcpO2 slopes, Least Square Mean","healthy volunteers; Sensor 4, pooling TSC doses ≥2.0 mg/kg, placebo −0.6389, probability 0.0187",0.0297
same,"Intra-subject TcpO2 slopes, Least Square Mean","healthy volunteers; Sensor 4, pooling all TSC doses, placebo −0.6389, probability 0.0230",−0.0198
same,Increase in TcpO2 levels relative to placebo,"healthy volunteers; all TSC dose groups, supplemental analysis, Period 2",greater increase in TcpO2 levels than the placebo group
same,TCOM readings after TSC administration compared to placebo,"healthy volunteers; persists up to 60 minutes, most pronounced at 2.0 and 2.5 mg/kg iv",positive trend
same,Dose with greatest increase in claudication onset time,[1],0.25 mg/kg
same,Dosing arm with peak increase in peak walking time,[1]; after 5 days of treatment,1.50 mg/kg
same,Whole-body oxygen consumption,hemorrhagic shock,increase whole-body oxygen consumption
same,Dosage of maximal protective effect on cerebral infarct volume,[2],0.092 mg/kg
same,Stability as a function of pH,[3],more stable at higher pHs
same,Safety and tolerability,[4],safe and well tolerated at all doses tested
same,Absorption into the blood stream,[5],Absorption is quick
